Experimental findings from patent US10329289B2, “6,7-dihydro-5H-pyrrolo[3,4-B]pyridin-5-one allosteric modulators of the M4 muscarinic acetylcholine receptor” (Merck Sharp & Dohme Corp., priority 2015, dated 2019) are described below.

This assay has as its target T1, human M4 muscarinic acetylcholine receptor (Homo sapiens, UniProt P08173).
T1 construct: expressed in transfected cells; host or cells: CHO-K1
T1 sequence (P08173 1-479): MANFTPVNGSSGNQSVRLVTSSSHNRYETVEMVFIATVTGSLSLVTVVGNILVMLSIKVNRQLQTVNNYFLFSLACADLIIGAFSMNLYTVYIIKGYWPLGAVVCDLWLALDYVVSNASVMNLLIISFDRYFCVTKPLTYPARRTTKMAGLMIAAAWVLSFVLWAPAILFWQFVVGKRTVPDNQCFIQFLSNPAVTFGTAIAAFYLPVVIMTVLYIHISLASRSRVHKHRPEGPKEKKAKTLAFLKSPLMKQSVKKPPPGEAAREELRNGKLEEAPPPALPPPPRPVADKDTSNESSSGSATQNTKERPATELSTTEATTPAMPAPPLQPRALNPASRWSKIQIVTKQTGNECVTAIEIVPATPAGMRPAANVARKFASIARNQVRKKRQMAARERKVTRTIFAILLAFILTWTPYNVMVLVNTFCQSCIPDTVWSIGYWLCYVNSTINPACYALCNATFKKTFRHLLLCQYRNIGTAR
As to the kind of experiment: human FLIPR-based M4 PAM assay (Ca2+ mobilization, CHO-K1 cells with human M4 receptor and Gαqi5). It counts as cell-based. Conditions: acetylcholine at 20% of maximum response, read-out: M4 PAM IP. In outline:
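CHO-K1 cells stably expressing human M4 and chimeric Gαqi5 were dye-loaded ~1 h at 37 °C and read for Ca2+ fluorescence. Compound followed by acetylcholine at an EC20 (sometimes an EC70 third addition); inflection point from a 4-parameter logistic fit.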
A general note: Calcium assays in cells follow changes in intracellular calcium, usually with a dye or a luminescent sensor.
For the compound `CCOc1ccc(OC2CCN(c3nc4c(cc3C)C(=O)N(C)[C@@H]4CO)CC2)cn1` [Example 286, (S)-2-(4-((6-ethoxypyridin-3-yl)oxy)piperidin-1-yl)-7-(hydroxymethyl)-3,6-dimethyl-6,7-dihydro-5H-pyrrolo[3,4-b]pyridin-5-one], the EC50 amounted to 38 nM.

For the compound `COc1ccc(OC2CCN(c3nc4c(cc3C)C(=O)NC4(C)C)CC2)cn1` [Example 288, 2-(4-((6-Methoxypyridin-3-yl)ox)piperidin-1-yl)-3,7,7-trimethyl-6,7-dihydro-5H-pyrrolo[3,4-b]pyridin-5-one], the EC50 worked out at 1790 nM.

As to `C=C1NC(=O)c2cc(C)c(N3CCC(Oc4ccc(OC)nc4)CC3)nc21` [Example 289, 2-(4-((6-Methoxypyridin-3-yl)oxy)piperidin-1-yl)-3-methyl-7-methylene-6,7-dihydro-5H-pyrrolo[3,4-b]pyridin-5-one], the EC50 stood at 156 nM.

For `Cc1cc2c(nc1N1CCC(Oc3ccc4c(c3)CN(C)C4)CC1)CNC2=O` [Example 290, 3-Methyl-2-(4-((2-methylisoindolin-5-yl)oxy)piperidin-1-yl)-6,7-dihydro-5H-pyrrolo[3,4-b]pyridin-5-one], the EC50 stood at 353 nM.

Consider `Cc1cc2c(nc1N1CCC(Oc3ccc4c(c3)CCCN4C)CC1)CNC2=O` [Example 291, 3-methyl-2-(4-((1-methyl-1,2,3,4-tetrahydroquinolin-6-yl)oxy)piperidin-1-yl)-6,7-dihydro-5H-pyrrolo[3,4-b]pyridin-5-one], for which the EC50 was determined as 204 nM.

Consider `Cc1cc2c(nc1N1CCC(Oc3ccc4c(c3)CN(C)CC4)CC1)CNC2=O` [Example 292, 3-methyl-2-(4-((2-methyl-1,2,3,4-tetrahydroisoquinolin-7-yl)oxy)piperidin-1-yl)-6,7-dihydro-5H-pyrrolo[3,4-b]pyridin-5-one], for which the EC50 amounted to 174 nM.

Turning to `Cc1cc2c(nc1N1CCC(Oc3ccc4c(c3)OCCN4C)CC1)CNC2=O` [Example 293, 3-methyl-2-(4-((4-methyl-3,4-dihydro-2H-benzo[b][1,4]oxazin-7-yl)oxy)piperidin-1-yl)-6,7-dihydro-5H-pyrrolo[3,4-b]pyridin-5-one], the EC50 was determined as 104 nM.

For the compound `CC(=O)N1Cc2ccc(OC3CCN(c4nc5c(cc4C)C(=O)NC5)CC3)cc2C1` [Example 294, 2-(4-((2-Acetylisoindolin-5-yl)oxy)piperidin-1-yl)-3-methyl-6,7-dihydro-5H-pyrrolo[3,4-b]pyridin-5-one], the EC50 amounted to 202 nM.

Turning to `CC(=O)N1CCc2ccc(OC3CCN(c4nc5c(cc4C)C(=O)NC5)CC3)cc2C1` [Example 295, 2-(4-((2-acetyl-1,2,3,4-tetrahydro-isoquinolin-7-yl)oxy)piperidin-1-yl)-3-methyl-6,7-dihydro-5H-pyrrolo[3,4-b] pyridin-5-one], the EC50 is 137 nM.

Turning to `COc1ccc(OC2CCN(c3nc4c(cc3C)C(=O)N(Cc3ccncc3)C4=O)CC2)cn1` [Example 296, 2-(4-((6-Methoxypyridin-3-yl)oxy)piperidin-1-yl)-3-methyl-6-(pyridin-4-ylmethyl)-5H-pyrrolo[3,4-b]pyridine-5,7(6H)-dione], the EC50 amounted to 83 nM.

As for `COc1ccc(OC2CCN(c3nc4c(cc3C)C(=O)NC4=O)CC2)cn1` [Example 297, 2-(4-((6-Methoxypyridin-3-yl)oxy)piperidin-1-yl)-3-methyl-5H-pyrrolo[3,4-b]pyridine-5,7(6H)-dione], the EC50 came out at 22 nM.

For the compound `COc1ccc(OC2CCN(c3nc4c(cc3C)C(=O)NC4O)CC2)cn1` (stereo not shown) [Example 298, 7-Hydroxy-2-(4-((6-methoxypyridin-3-yl)oxy)piperidin-1-yl)-3-methyl-6,7-dihydro-5H-pyrrolo[3,4-b]pyridin-5-one], the EC50 was determined as 24 nM.

For the compound `COc1ccc(OC2CCN(c3nc4c(cc3C)C(=O)N(C(=O)OC(C)(C)C)C4)CC2)cn1` [Example 299, tert-Butyl 2-(4-((6-methoxypyridin-3-yl)oxy)piperidin-1-yl)-3-methyl-5-oxo-5,7-dihydro-6H-pyrrolo[3,4-b]pyridine-6-carboxylate], the EC50 was 265 nM.

For the compound `COc1ccc(OC2CCN(c3nc4c(cc3C)C(=O)NC43CC3)CC2)cn1` [Example 300], the EC50 came out at 286 nM.

In the case of `COc1ccc(OC2CCN(c3nc4c(cc3CO)C(=O)NC4)CC2)cn1` [Example 301, 3-(Hydroxymethyl)-2-(4-((6-methoxypyridin-3-yl)oxy)piperidin-1-yl)-6,7-dihydro-5H-pyrrolo[3,4-b]pyridin-5-one], the EC50 is 1140 nM.

In the case of `COc1ccc(OC2CCN(c3nc4c(c(CO)c3C)C(=O)NC4)CC2)cn1` [Example 302, 4-(hydroxymethyl)-2-(4-((6-methoxypyridin-3-yl)oxy)piperidin-1-yl)-3-methyl-6,7-dihydro-5H-pyrrolo[3,4-b]pyridin-5-one], the EC50 came out at 819 nM.

With `Cc1c(N2CCC(Oc3ccc4c(c3)COC4)CC2)nc2c(c1CO)C(=O)NC2` [Example 303, 2-(4-((1,3-dihydro-2-benzofuran-5-yl)oxy)piperidin-1-yl)-4-(hydroxymethyl)-3-methyl-6,7-dihydro-5H-pyrrolo[3,4-b]pyridin-5-one], the EC50 amounted to 302 nM.

Take `COc1ccc(OC2CCN(c3nc4c(cc3CF)C(=O)NC4)CC2)cn1` [Example 304, 3-(Fluoromethyl)-2-(4-((6-methoxypyridin-3-yl)oxy)piperidin-1-yl)-6,7-dihydro-5H-pyrrolo[3,4-b]pyridin-5-one]: the EC50 was found to be 1120 nM.

Turning to `COc1ccc(OC2CCN(c3nc4c(c(CF)c3C)C(=O)NC4)CC2)cn1` [Example 305, 4-(fluoromethyl)-2-(4-((6-methoxypyridin-3-yl)oxy)piperidin-1-yl)-3-methyl-6,7-dihydro-5H-pyrrolo[3,4-b]pyridin-5-one], the EC50 was found to be 241 nM.

Turning to `COc1ccc(OC2CCN(c3nc4c(cc3C=O)C(=O)NC4)CC2)cn1` [Example 306, 2-(4-((6-Methoxypyridin-3-yl)oxy)piperidin-1-yl)-5-oxo-6,7-dihydro-5H-pyrrolo[3,4-b]pyridine-3-carbaldehyde], the EC50 was found to be 320 nM.

`COc1ccc(OC2CCN(c3nc4c(cc3C(F)F)C(=O)NC4)CC2)cn1` [Example 307, 3-(Difluoromethyl)-2-(4-((6-methoxypyridin-3-yl)oxy)piperidin-1-yl)-6,7-dihydro-5H-pyrrolo[3,4-b]pyridin-5-one]: the EC50 is 1310 nM.

As for `COc1ccc(OC2CCN(c3nc4c(c(C(F)F)c3C)C(=O)NC4)CC2)cn1` [Example 307A, 4-(difluoromethyl)-2-(4-((6-methoxypyridin-3-yl)oxy)piperidin-1-yl)-3-methyl-6,7-dihydro-5H-pyrrolo[3,4-b]pyridin-5-one], the EC50 stood at 279 nM.

As to `Cc1cc2c(nc1N1CCC(Oc3cccc(C=O)c3)CC1)CNC2=O` [Example 308, 3-((1-(3-Methyl-5-oxo-6,7-dihydro-5H-pyrrolo[3,4-b]pyridin-2-yl)piperidin-4-yl)oxy)benzaldehyde], the EC50 was 176 nM.

`Cc1cc2c(nc1N1CCC(Oc3cccc(CO)c3)CC1)CNC2=O` [Example 309, 2-(4-(3-(Hydroxymethyl)phenoxy)piperidin-1-yl)-3-methyl-6,7-dihydro-5H-pyrrolo[3,4-b]pyridin-5-one]: the EC50 was 47 nM.

Consider `COc1ccc(OC2CCN(c3nc4c(cc3C)C(=O)N(CC(N)=O)C4)CC2)cn1` [Example 310, 2-(2-(4-((6-methoxypyridin-3-yl)oxy)piperidin-1-yl)-3-methyl-5-oxo-5,7-dihydro-6H-pyrrolo[3,4-b]pyridin-6-yl)acetamide], for which the EC50 came out at 101 nM.

`Cc1c(N2CCC(Oc3ccc4c(c3)COC4)CC2)nc2c(c1C)C(=O)N(CC(N)=O)C2` [Example 310A, 2-(2-(4-((1,3-dihydro-2-benzofuran-5-yl)oxy)piperidin-1-yl)-3,4-dimethyl-5-oxo-5,7-dihydro-6H-pyrrolo[3,4-b]pyridin-6-yl)acetamide]: the EC50 came out at 35 nM.

For `Cc1cc2c(nc1N1CCC(OCC3CC3(C)C)CC1)CNC2=O` (stereo not shown) [Example 311, 2-(4-((2,2-Dimethylcyclopropyl)methoxy)piperidin-1-yl)-3-methyl-6,7-dihydro-5H-pyrrolo[3,4-b]pyridin-5-one], the EC50 is 686 nM.

As to `Cc1cc2c(nc1N1CCC(Oc3cnn(C4CC4)c3)CC1)CNC2=O` [Example 311A, 2-(4-((1-cyclopropyl-1H-pyrazol-4-yl)oxy)piperidin-1-yl)-3-methyl-6,7-dihydro-5H-pyrrolo[3,4-b]pyridin-5-one], the EC50 was 108 nM.

For the compound `Cc1cc2c(nc1N1CCC(OCC3(CO)CC3)CC1)CNC2=O` [Example 312, 2-(4-((1-(hydroxymethyl)cyclopropyl)methoxy)piperidin-1-yl)-3-methyl-6,7-dihydro-5H-pyrrolo[3,4-b]pyridin-5-one], the EC50 stood at 651 nM.

Take `COCCn1cc(OC2CCN(c3nc4c(cc3C)C(=O)NC4)CC2)cn1` [Example 312A, 2-(4-((1-(2-methoxyethyl)-1H-pyrazol-4-yl)oxy)piperidin-1-yl)-3-methyl-6,7-dihydro-5H-pyrrolo[3,4-b]pyridin-5-one]: the EC50 worked out at 2510 nM.

Turning to `Cc1cc2c(nc1N1CCC(OCC3(O)CC3)CC1)CNC2=O` [Example 312B, 2-(4-((1-hydroxycyclopropyl)methoxy)piperidin-1-yl)-3-methyl-6,7-dihydro-5H-pyrrolo[3,4-b]pyridin-5-one], the EC50 came out at 1120 nM.
